Laboratory results from patent US8389558B2, “Bendamustine amphiphilic anionic compositions” (Supratek Pharma Inc., priority 2009, dated 2013).
Structures can show the parent of a compound that is named as a salt.

What was measured:
[1] = 23° C.; cited from earlier work
[2] = Bendamustine chemical stability in formulations with amphiphilic anionic agents and phosphate buffer (HPLC, first order kinetics); assay type: physicochemical; conditions: 0.6 mg/mL bendamustine, 1% (w/v) aqueous amphiphilic anionic agent, 6 mM phosphate buffer pH 7.2, 25° C.; read-out: decomposition half time (T½) of bendamustine
Procedure: Formulations were prepared by dissolving bendamustine hydrochloride in pre-equilibrated 1% (w/v) aqueous solution of amphiphilic anionic agent containing 6 mM phosphate buffer, pH 7.2. The final concentration of bendamustine was 0.6 mg/mL. The formulations were incubated at 25° C., and were periodically analyzed by HPLC as follows. 10 μL samples were separated using Waters SymmetryShield RP-18 3.5 μm column (4.6×50 mm) at the flow of 1.5 mL/min of acetonitrile-water gradient containing 0.1% TFA. Peak detection has been performed with means of UV absorption detection at 260 nm. The area of the peak of Bendamustine was used to evaluate the rate of drug decomposition in the first order kinetics model.

Q: For Cn1c(CCCC(=O)O)nc2cc(N(CCCl)CCCl)ccc21 [bendamustine hydrochloride], which “time for which stable in saline solution” value [1] is on record?
A: 9 h

Q: Which half-life at 0.6 mg/mL [2] does the source give for Cn1c(CCCC(=O)O)nc2cc(N(CCCl)CCCl)ccc21 [Control (phosphate buffer), bendamustine hydrochloride] here?
A: 44 min
